Patent US10336721B2, “Biaryltriazole inhibitors of macrophage migration inhibitory factor” (YALE UNIVERSITY, priority 2015, dated 2019)

target: human MIF (Homo sapiens (Human), UniProt P14174); experiment: Inhibition of tautomerase activity of human MIF (HPP substrate); assay type: biochemical; settings: MIF tautomerase, HPP substrate, 50 nM MIF
Sequence (P14174 2-115): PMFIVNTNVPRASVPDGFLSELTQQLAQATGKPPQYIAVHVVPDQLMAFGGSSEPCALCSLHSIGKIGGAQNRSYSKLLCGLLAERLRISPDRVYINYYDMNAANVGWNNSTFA

In order of falling Ki:
1. COCCOc1ccc2nc(-c3cn(-c4ccc(F)cc4)nn3)ccc2c1 [Example 3, 2-(1-(4-Fluorophenyl)-1H-1,2,3-triazol-4-yl)-6-(2-methoxyethoxy)quinoline]  8900 nM
2. O=C(O)c1cccc(Oc2cccc3nc(-c4cn(-c5ccc(F)c(F)c5)nn4)ccc23)c1 [Example 36, 3-((2-(1-(3,4-Difluorophenyl)-1H-1,2,3-triazol-4-yl)quinolin-5-yl)oxy)benzoic acid]  4930 nM
3. COCCOc1ccc2nc(-c3cn(-c4ccc(O)cc4)nn3)ncc2c1 [Example 31, 4-(4-(6-(2-Methoxyethoxy)quinazolin-2-yl)-1H-1,2,3-triazol-1-yl)phenol]  2350 nM
4. Cc1cc(-c2cn(-c3ccc(O)cc3)nn2)nc2ccccc12 [Example 12, 4-(4-(4-Methylquinolin-2-yl)-1H-1,2,3-triazol-1-yl)phenol]  2300 nM
5. Oc1ccc(-n2cc(-c3ccc4cccnc4n3)nn2)cc1 [Example 26, 4-(4-(1,8-Naphthyridin-2-yl)-1H-1,2,3-triazol-1-yl)phenol]  1480 nM
6. Oc1ccc(-n2cc(-c3ccc4c(Oc5ccccc5)cccc4n3)nn2)cc1 [Example 18, 4-(4-(5-Phenoxyquinolin-2-yl)-1H-1,2,3-triazol-1-yl)phenol]  370 nM
7. COCCOc1ccc(Oc2cccc3nc(-c4cn(-c5ccc(O)cc5)nn4)ccc23)cc1 [Example 24, 4-(4-(5-(4-(2-Methoxyethoxy)phenoxy)quinolin-2-yl)-1H-1,2,3-triazol-1-yl)phenol]  360 nM
8. O=C(O)c1ccc(Oc2cccc3ccc(-c4cn(-c5ccc(O)c(F)c5)nn4)nc23)cc1 [Example 39, 4-((2-(1-(3-Fluoro-4-hydroxyphenyl)-1H-1,2,3-triazol-4-yl)quinolin-8-yl)oxy)benzoic acid]  296 nM
9. Oc1ccc(-n2cc(-c3ccc4c(Oc5cccc(OCCOCCN6CCOCC6)c5)cccc4n3)nn2)cc1F [Example 38, 2-Fluoro-4-(4-(5-(3-(2-(2-morpholinoethoxy)ethoxy)phenoxy)quinolin-2-yl)-1H-1,2,3-triazol-1-yl)phenol]  128 nM
10. O=C(O)c1cccc(Oc2cccc3ccc(-c4cn(-c5ccc(O)c(F)c5)nn4)nc23)c1 [Example 40, 3-((2-(1-(3-Fluoro-4-hydroxyphenyl)-1H-1,2,3-triazol-4-yl)quinolin-8-yl)oxy)benzoic acid]  112 nM
11. O=C(O)c1ccc(Oc2cccc3nc(-c4cn(-c5ccc(O)c(F)c5)nn4)ccc23)cc1 [Example 35, 4-((2-(1-(3-Fluoro-4-hydroxyphenyl)-1H-1,2,3-triazol-4-yl)quinolin-5-yl)oxy)benzoic acid]  110 nM
12. O=C(O)CCCOc1ccc2ccc(-c3cn(-c4ccc(O)c(F)c4)nn3)nc2c1 [Example 42, 4-((2-(1-(3-Fluoro-4-hydroxyphenyl)-1H-1,2,3-triazol-4-yl)quinolin-7-yl)oxy)butanoic acid]  43 nM

same assay, conditions: read-out: % inhibition at 10 μM

In order of falling inhibition at 10 µM:
1. Oc1ccc(-n2cc(-c3ccc4cccc(Cl)c4n3)nn2)cc1 [Example 13, 4-(4-(8-Chloroquinolin-2-yl)-1H-1,2,3-triazol-1-yl)phenol]  16%
2. Clc1ccc(-n2cc(-c3ccc4cccnc4n3)nn2)cc1 [Example 27, 2-(1-(4-Chlorophenyl)-1H-1,2,3-triazol-4-yl)-1,8-naphthyridine]  9%
3. COCCOc1ccc2nc(-c3cn(-c4ccc(O)c(OC)c4)nn3)ccc2c1 [Example 10, 2-Methoxy-4-(4-(6-(2-methoxyethoxy)quinolin-2-yl)-1H-1,2,3-triazol-1-yl)phenol]  8%
4. COCCOc1ccc2nc(-c3cn(-c4ccc(C(N)=O)cc4)nn3)ccc2c1 [Example 8, 4-(4-(6-(2-Methoxyethoxy)quinolin-2-yl)-1H-1,2,3-triazol-1-yl)benzamide]  0%
5. COCCOc1ccc2nc(-c3cn(-c4ccc(OC)cc4)nn3)ccc2c1 [Example 6, 6-(2-Methoxyethoxy)-2-(1-(4-methoxyphenyl)-1H-1,2,3-triazol-4-yl)quinoline]  0%
